Measured values published in patent publication US7141251B2, “Pharmacologically active strong acid solutions” (Cytorex Biosciences, inc., priority 2001, dated 2006).

Tests used:
[1] = Example 27: patient with hypertension; details: 180/110 without medication
[2] = in water; cited from earlier work

| SMILES | blood pressure [1] | Grade of Ionization (α) [2] |
| --- | --- | --- |
| CC(C)NCC(O)COc1ccc(CC(N)=O)cc1 (stereo not drawn) [Atenolol] | 150/90 | – |
| O=C(O)CC(O)(CC(=O)O)C(=O)O [Formulation H8C6O7, citric acid] | – | α < 1 |
| O=C(O)C(=O)O [Formulation H2C2O4, oxalic acid] | – | α = 1 |
